Legend:
Format in all cases: functional
[1] = test system: A498; assay: Growth inhibition of human A498 cells
[2] = test system: T47D; assay: Growth inhibition of human T47D cells
[3] = test system: ACHN; assay: Growth inhibition of human ACHN cells
[4] = test system: SN12C; assay: Growth inhibition of human SN12C cells
[5] = test system: OVCAR-3; assay: Growth inhibition of human OVCAR-3 cells
[6] = test system: PC-3; assay: Growth inhibition of human PC3 cells
[7] = test system: CCRF-CEM; assay: Growth inhibition of human CCRF-CEM cells
[8] = test system: UACC-62; assay: Growth inhibition of human UACC62 cells
[9] = test system: UO-31; assay: Growth inhibition of human UO31 cells
[10] = test system: MDA-MB-231; assay: Growth inhibition of human MDA-MB-231 cells
[11] = test system: NCI-H322M; assay: Growth inhibition of human NCI-H322M cells
[12] = test system: 786-0; assay: Growth inhibition of human 786-0 cells
[13] = test system: MDA-MB-435; assay: Growth inhibition of human MDA-MB-435 cells
[14] = test system: COLO 205; assay: Growth inhibition of human COLO205 cells
[15] = test system: U-251; assay: Growth inhibition of human U251 cells
[16] = test system: NCI/ADR-RES; assay: Growth inhibition of human NCI/ADR-RES cells
[17] = test system: HOP-62; assay: Growth inhibition of human HOP62 cells
[18] = test system: OVCAR-5; assay: Growth inhibition of human OVCAR5 cells
[19] = test system: HCT-116; assay: Growth inhibition of human HCT116 cells
[20] = test system: RXF 393; assay: Growth inhibition of human […] cells
[21] = test system: SW-620; assay: Growth inhibition of human SW620 cells
[22] = test system: Malme-3M; assay: Growth inhibition of human MALME-3M cells
[23] = test system: HCC 2998; assay: Growth inhibition of human HCC2998 cells
[24] = Growth inhibition of human Hs 578T cells
[25] = test system: NCI-H23; assay: Growth inhibition of human NCI-H23 cells
[26] = test system: SNB-19; assay: Growth inhibition of human SNB19 cells
[27] = test system: MDA-MB-468; assay: Growth inhibition of human MDA-MB-468 cells
[28] = test system: RPMI-8226; assay: Growth inhibition of human RPMI8226 cells
[29] = test system: NCI-H460; assay: Growth inhibition of human NCI-H460 cells
[30] = test system: SK-OV-3; assay: Growth inhibition of human SKOV3 cells
[31] = test system: A549; assay: Growth inhibition of human A549 cells
[32] = test system: K562; assay: Growth inhibition of human K562 cells
[33] = test system: HT-29; assay: Growth inhibition of human HT-29 cells
[34] = test system: MCF7; assay: Growth inhibition of human MCF7 cells
[35] = test system: SK-MEL-2; assay: Growth inhibition of human SK-MEL-2 cells
[36] = test system: SK-MEL-28; assay: Growth inhibition of human SK-MEL-28 cells
[37] = test system: HOP-92; assay: Growth inhibition of human HOP92 cells
[38] = test system: IGROV-1; assay: Growth inhibition of human IGROV1 cells
[39] = test system: DU-145; assay: Growth inhibition of human DU145 cells
[40] = test system: OVCAR-4; assay: Growth inhibition of human OVCAR4 cells
[41] = test system: HCT-15; assay: Growth inhibition of human HCT15 cells
[42] = test system: NCI-H522; assay: Growth inhibition of human NCI-H522 cells
[43] = test system: SF-295; assay: Growth inhibition of human SF295 cells
[44] = read-out: pLC50 (the source's name) (converted)

CC(C)=CCC/C(C)=C/CC/C(C)=C/Cc1c(O)cc(/C=C/c2ccc(O)cc2)cc1O [SCHWEINFURTHIN J]
GI50 [1]: 2.82 µM | LC50 [1]: 45.7 µM | TGI ([1]; read-out: pTGI (converted)): 16.6 µM | GI50 [2]: 2.63 µM | LC50 [2]: 52.5 µM | TGI ([2]; read-out: pTGI (converted)): 13.2 µM | GI50 [3]: 3.8 µM | CC50 [3, 44]: 38.9 µM | TGI ([3]; read-out: pTGI (converted)): 13.5 µM | GI50 [4]: 1.95 µM | CC50 [4, 44]: 9.77 µM | TGI ([4]; read-out: pTGI (converted)): 4.37 µM | GI50 [5]: 2 µM | LC50 (concentration killing 50% of cells) [5]: 14.1 µM | TGI ([5]; read-out: pTGI (converted)): 4.79 µM | GI50 [6]: 3.02 µM | LC50 [6]: 42.7 µM | TGI ([6]; read-out: pTGI (converted)): 13.5 µM | GI50 [7]: 0.537 µM | LC50 [7]: > 100 µM | TGI ([7]; read-out: pTGI (converted)): 17 µM | GI50 [8]: 2.24 µM | CC50 [8, 44]: 15.8 µM | TGI ([8]; read-out: pTGI (converted)): 5.25 µM | GI50 [9]: 1.32 µM | LC50 (concentration killing 50% of cells) [9]: 34.7 µM | TGI ([9]; read-out: pTGI (converted)): 10.2 µM | GI50 [10]: 3.47 µM | LC50 [10]: 44.7 µM | TGI ([10]; read-out: pTGI (converted)): 11.7 µM | GI50 [11]: 6.17 µM | LC50 [11]: 47.9 µM | TGI ([11]; read-out: pTGI (converted)): 20 µM | GI50 [12]: 1.95 µM | CC50 [12, 44]: 9.77 µM | TGI ([12]; read-out: pTGI (converted)): 4.37 µM | GI50 [13]: 3.09 µM | CC50 [13, 44]: 46.8 µM | TGI ([13]; read-out: pTGI (converted)): 10.5 µM | GI50 [14]: 6.46 µM | LC50 [14]: 44.7 µM | TGI ([14]; read-out: pTGI (converted)): 18.6 µM | GI50 [15]: 2.75 µM | LC50 [15]: 30.9 µM | TGI ([15]; read-out: pTGI (converted)): 8.32 µM | GI50 [16]: 3.16 µM | CC50 [16, 44]: 38.9 µM | TGI ([16]; read-out: pTGI (converted)): 9.77 µM | GI50 [17]: 2.04 µM | LC50 [17]: 7.41 µM | TGI ([17]; read-out: pTGI (converted)): 3.89 µM | GI50 [18]: 4.47 µM | LC50 [18]: 44.7 µM | TGI ([18]; read-out: pTGI (converted)): 15.8 µM | GI50 [19]: 1.86 µM | CC50 [19, 44]: 7.94 µM | TGI ([19]; read-out: pTGI (converted)): 3.89 µM | GI50 [20]: 1.86 µM | CC50 [20, 44]: 6.61 µM | TGI ([20]; read-out: pTGI (converted)): 3.55 µM | GI50 [21]: 3.16 µM | LC50 [21]: 66.1 µM | TGI ([21]; read-out: pTGI (converted)): 12 µM | GI50 [22]: 2.95 µM | LC50 [22]: 39.8 µM | TGI ([22]; read-out: pTGI (converted)): 8.91 µM | GI50 [23]: 2.69 µM | LC50 [23]: 21.4 µM | TGI ([23]; read-out: pTGI (converted)): 6.31 µM | GI50 [24]: 2.88 µM | LC50 [24]: 89.1 µM | TGI ([24]; read-out: pTGI (converted)): 12.3 µM | GI50 [25]: 3.02 µM | LC50 [25]: 36.3 µM | TGI ([25]; read-out: pTGI (converted)): 8.51 µM | GI50 [26]: 6.76 µM | LC50 [26]: 46.8 µM | TGI ([26]; read-out: pTGI (converted)): 19.5 µM | GI50 [27]: 2.69 µM | CC50 [27, 44]: 36.3 µM | TGI ([27]; read-out: pTGI (converted)): 8.91 µM | GI50 [28]: 3.16 µM | LC50 [28]: > 100 µM | TGI ([28]; read-out: pTGI (converted)): 14.8 µM | GI50 [29]: 3.24 µM | LC50 [29]: 70.8 µM | TGI ([29]; read-out: pTGI (converted)): 12 µM | GI50 [30]: 7.24 µM | CC50 [30, 44]: 44.7 µM | TGI ([30]; read-out: pTGI (converted)): 19.5 µM | GI50 [31]: 3.31 µM | LC50 [31]: 42.7 µM | TGI ([31]; read-out: pTGI (converted)): 12.9 µM | GI50 [32]: 3.72 µM | LC50 [32]: > 100 µM | TGI ([32]; read-out: pTGI (converted)): 22.9 µM | GI50 [33]: 3.98 µM | LC50 [33]: 49 µM | TGI ([33]; read-out: pTGI (converted)): 15.8 µM | GI50 [34]: 2.57 µM | LC50 [34]: 43.7 µM | TGI ([34]; read-out: pTGI (converted)): 11.2 µM | GI50 [35]: 2.75 µM | LC50 [35]: 31.6 µM | TGI ([35]; read-out: pTGI (converted)): 8.13 µM | GI50 [36]: 2.45 µM | CC50 [36, 44]: 23.4 µM | TGI ([36]; read-out: pTGI (converted)): 6.46 µM | GI50 [37]: 2.29 µM | CC50 [37, 44]: 34.7 µM | TGI ([37]; read-out: pTGI (converted)): 8.32 µM | GI50 [38]: 2.34 µM | CC50 [38, 44]: 38.9 µM | TGI ([38]; read-out: pTGI (converted)): 11.2 µM | GI50 [39]: 3.72 µM | LC50 [39]: 35.5 µM | TGI ([39]; read-out: pTGI (converted)): 12.9 µM | GI50 [40]: 3.89 µM | CC50 [40, 44]: 39.8 µM | TGI ([40]; read-out: pTGI (converted)): 14.8 µM | GI50 [41]: 3.24 µM | LC50 (50% lethal concentration) [41]: 64.6 µM | TGI ([41]; read-out: pTGI (converted)): 16.6 µM | GI50 [42]: 1.82 µM | LC50 [42]: 13.2 µM | TGI ([42]; read-out: pTGI (converted)): 4.47 µM | GI50 [43]: 2.29 µM | LC50 [43]: 45.7 µM | TGI ([43]; read-out: pTGI (converted)): 11.5 µM
